# In PubChem BioAssay AID1963828 (Molecular Pharmacology Branch, DTP, NCI, 2024):
# Where “and” joins values, the source holds several entries; their conditions need not be identical. Equal values may be shown once.
# Test system: 991263-137-R1-J2-PDC complex spheroid viability
# Assay: Anticancer human tumor 991263-137-R1-J2-PDC patient-derived colon adenocarcinoma cell line growth inhibition [POLQ]
# Details: for viability, T/C: stronger effect = lower value
# Method: Multicellular complex tumor spheroid response to Polymerase (POL) inhibitors (novobiocin, ART-558, RP6685) in combination with a variety of drugs and investigational agents in selected tumor cell lines
# The POL inhibitors (novobiocin, ART-558, and RP6685) were evaluated both individually and in combination with standard of care and investigational anticancer small molecules within a complex spheroid model of solid tumors. . Complex spheroids include a stromal component modeled by human endothelial cells (HUVEC) and fibroblasts modeled by human mesenchymal stem cells (MSCs). The concentration ranges selected for each drug and investigational agent were based upon clinically achievable concentrations if the clinical Cmax of the agent was known.
# Compounds. The drugs and investigational agents: novobiocin (NSC847541), ART-558 (NSC835418), RP-6685 (NSC848927), peposertib (NSC802822), ceralasertib (NSC780249), elimusertib (NSC800525), camonsertib (NSC841442), AZD-1390 (NSC803789), olaparib (NSC753686), talazoparib (NSC767125), rucaparib (NSC756644), sotorasib (NSC818433), MRTX-1133 (NSC836407), SN-38 (NSC673596), topotecan (NSC609699), epotoside (NSC141540), doxorubicin (NSC123127), gemcitabine (NSC613327), 5-fluorouracil (NSC19893), paclitaxel (NSC125973), vemurafenib (NSC761431), MSA-2 (NSC828583), SN-011 (NSC837082), adavosertib (NSC754352), prexasertib (NSC758257), carboplatin (NSC241240) and oxaliplatin (NSC266046), were obtained from the National Cancer Institute (NCI) Developmental Therapeutics Program Chemical Repository (21). The FDA-approved anticancer drug set is available from the Developmental Therapeutics Program at https://dtp.cancer.gov/organization/dscb/obtaining/. […] The stock solutions were prepared in dimethyl sulfoxide (DMSO, Sigma-Aldrich, St. Louis, MO, cat. D2650), except for the platinum compounds which were prepared in saline (Quality Biological, Gaithersburg, MD, cat. 114-055-101), at 800-fold the tested concentration and stored at -70 degrees C prior to their use. All drugs and investigational agents were tested over a range starting from a high concentration at or near the clinical Cmax and decreasing in half-log increments. If the clinical Cmax for an agent had not been determined, the highest concentration tested was 10 microM, except for SN-38, which was tested at a high concentration of 1 microM.
# Cell Culture. All cells were maintained in an incubator at 37 degrees C and 5% CO2 with 95% humidity. The PDC lines were cultured according to standard operating procedures established by the NCI PDMR (https://pdmr.cancer.gov). Table 3 of the manuscript, lists the cell lines along with the number of the three cell types plated to form the mct-spheroids and media for tumor cell growth. After thawing, all PDC lines, except 997537-175-T-J1-PDC and 415267-285-R-J2-PDC, were cultured in Matrigel-coated flasks prepared with a working solution of 1X Ham's F-12 nutrient mix, without supplementation (Thermo Fisher Scientific, cat. 11765054), 100 U/mL penicillin-streptomycin (Thermo Fisher Scientific, cat. 15140122), and 2.5% Matrigel (Corning Inc., Corning, NY, cat. 354248) for the first three passages. The two PDC lines 997537-175-T-J1-PDC and 415267-285-R-J2-PDC were cultured on uncoated flasks. The 857933-349-R-J2-PDC line was cultured in 6C/Colon 1B media containing advanced DMEM/F-12 (Thermo Fisher Scientific, cat. 12634028), 10 mM HEPES (Thermo Fisher Scientific, cat. 15630080), 1X GlutaMAX supplement (Thermo Fisher Scientific, cat. 35050061), 0.1 mg/mL primocin (InvivoGen, San Diego, CA, cat. ant-pm-2), 10% defined fetal bovine serum, heat inactivated (HyClone Laboratories Inc., Logan, UT, cat. SH30070.03HI), 50% L-WRN conditioned media (ATCC, cat. CRL-3276), 1.25 mM N-Acetyl-L-cysteine (Sigma-Aldrich, cat. A9165), 10 mM nicotinamide (Sigma-Aldrich, cat. N0636), 1X B-27 supplement (Thermo Fisher Scientific, cat. 17504044), 1X N-2 supplement (Thermo Fisher Scientific, cat. […]
# [1] = curve of first compound, second compound 0.0316 µM
# [2] = curve of first compound, second compound 0.1 µM
# [3] = curve of first compound, second compound 0.316 µM
# [4] = curve of first compound, second compound 1 µM
# [5] = curve of first compound, second compound 3.16 µM
# [6] = curve of first compound, second compound 10 µM
# [7] = second compound 0.0316 µM, first compound 0.0316 µM
# [8] = second compound 0.0316 µM, first compound 0.1 µM
# [9] = second compound 0.0316 µM, first compound 0.316 µM
# [10] = second compound 0.0316 µM, first compound 1 µM
# [11] = second compound 0.0316 µM, first compound 3.16 µM
# [12] = second compound 0.0316 µM, first compound 10 µM
# [13] = second compound 0.1 µM, first compound 0.0316 µM
# [14] = second compound 0.1 µM, first compound 0.1 µM
# [15] = second compound 0.1 µM, first compound 0.316 µM
# [16] = second compound 0.1 µM, first compound 1 µM
# [17] = second compound 0.1 µM, first compound 3.16 µM
# [18] = second compound 0.1 µM, first compound 10 µM
# [19] = second compound 0.316 µM, first compound 0.0316 µM
# [20] = second compound 0.316 µM, first compound 0.1 µM
# [21] = second compound 0.316 µM, first compound 0.316 µM
# [22] = second compound 0.316 µM, first compound 1 µM
# [23] = second compound 0.316 µM, first compound 3.16 µM
# [24] = second compound 0.316 µM, first compound 10 µM
# [25] = second compound 1 µM, first compound 0.0316 µM
# [26] = second compound 1 µM, first compound 0.1 µM
# [27] = second compound 1 µM, first compound 0.316 µM
# [28] = second compound 1 µM, first compound 1 µM
# [29] = second compound 1 µM, first compound 3.16 µM
# [30] = second compound 1 µM, first compound 10 µM
# [31] = second compound 3.16 µM, first compound 0.0316 µM
# [32] = second compound 3.16 µM, first compound 0.1 µM
# [33] = second compound 3.16 µM, first compound 0.316 µM
# [34] = second compound 3.16 µM, first compound 1 µM
# [35] = second compound 3.16 µM, first compound 3.16 µM
# [36] = second compound 3.16 µM, first compound 10 µM
# [37] = second compound 10 µM, first compound 0.0316 µM
# [38] = second compound 10 µM, first compound 0.1 µM
# [39] = second compound 10 µM, first compound 0.316 µM
# [40] = second compound 10 µM, first compound 1 µM
# [41] = second compound 10 µM, first compound 3.16 µM
# [42] = second compound 10 µM, first compound 10 µM
# 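Note: spheroids exposed to compounds for 7 days before readout.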
# 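Throughout, for viability, T/C: 100% = DMSO vehicle control viability.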
structure (smiles),measurement,setting,value
CCCS(=O)(=O)Nc1ccc(F)c(C(=O)c2c[nH]c3ncc(-c4ccc(Cl)cc4)cc23)c1F + Nc1ccc(C#CCN(C(=O)Cc2ncc(C(F)(F)F)cc2C(F)(F)F)c2ccc(F)cc2)nn1,IC50,[1],> 10 µM
same,IC50,[2],> 10 µM
same,IC50,[3],> 10 µM
same,IC50,[4],> 10 µM
same,IC50,[5],> 10 µM
same,IC50,[6],> 10 µM
same,"viability, T/C",[7],114%
same,"viability, T/C",[8],98.2%
same,"viability, T/C",[9],103%
same,"viability, T/C",[10],107%
same,"viability, T/C",[11],117%
same,"viability, T/C",[12],102%
same,"viability, T/C",[13],97.6%
same,"viability, T/C",[14],101%
same,"viability, T/C",[15],97.2%
same,"viability, T/C",[16],110%
same,"viability, T/C",[17],103%
same,"viability, T/C",[18],103%
same,"viability, T/C",[19],105%
same,"viability, T/C",[20],114%
same,"viability, T/C",[21],108%
same,"viability, T/C",[22],98.7%
same,"viability, T/C",[23],128%
same,"viability, T/C",[24],95.1%
same,"viability, T/C",[25],93.9%
same,"viability, T/C",[26],102%
same,"viability, T/C",[27],112%
same,"viability, T/C",[28],117%
same,"viability, T/C",[29],117%
same,"viability, T/C",[30],107%
same,"viability, T/C",[31],117%
same,"viability, T/C",[32],97.3%
same,"viability, T/C",[33],111%
same,"viability, T/C",[34],93.2%
same,"viability, T/C",[35],111%
same,"viability, T/C",[36],115%
same,"viability, T/C",[37],90.2%
same,"viability, T/C",[38],112%
same,"viability, T/C",[39],95.7%
same,"viability, T/C",[40],104%
same,"viability, T/C",[41],115%
same,"viability, T/C",[42],116%
CCc1cc2c(N3CCc4c(cc(Cn5ccnc5)cc4-c4cn(C)nc4C(F)(F)F)C3=O)ccnc2c(OC)n1 + Cc1cccc(N(C)C(=O)C2C(O)CCN2c2nc(C)cc(C(F)(F)F)c2C#N)c1,IC50,[1],> 10 µM
same,IC50,[2],> 10 µM
same,IC50,[3],> 10 µM
same,IC50,[4],> 10 µM
same,IC50,[5],> 10 µM
same,IC50,[6],> 10 µM
same,"viability, T/C",[7],95.3%
same,"viability, T/C",[8],108%
same,"viability, T/C",[9],107%
same,"viability, T/C",[10],87.2%
same,"viability, T/C",[11],82.8%
same,"viability, T/C",[12],91.7%
same,"viability, T/C",[13],103%
same,"viability, T/C",[14],100%
same,"viability, T/C",[15],97.7%
same,"viability, T/C",[16],95.9%
same,"viability, T/C",[17],96.7%
same,"viability, T/C",[18],88.3%
same,"viability, T/C",[19],104%
same,"viability, T/C",[20],96.8%
same,"viability, T/C",[21],93.4%
same,"viability, T/C",[22],95.7%
same,"viability, T/C",[23],100%
same,"viability, T/C",[24],94.4%
same,"viability, T/C",[25],105%
same,"viability, T/C",[26],98.4%
same,"viability, T/C",[27],110%
same,"viability, T/C",[28],96%
same,"viability, T/C",[29],103%
same,"viability, T/C",[30],92%
same,"viability, T/C",[31],106%
same,"viability, T/C",[32],97.5%
same,"viability, T/C",[33],90.4%
same,"viability, T/C",[34],96.2%
same,"viability, T/C",[35],90.3%
same,"viability, T/C",[36],89%
same,"viability, T/C",[37],96.6%
same,"viability, T/C",[38],111%
same,"viability, T/C",[39],97%
same,"viability, T/C",[40],89.9%
same,"viability, T/C",[41],91.4%
same,"viability, T/C",[42],83%
CCc1cc2c(N3CCc4c(cc(Cn5ccnc5)cc4-c4cn(C)nc4C(F)(F)F)C3=O)cc(C)nc2c(OC)n1 + Cc1cccc(N(C)C(=O)C2C(O)CCN2c2nc(C)cc(C(F)(F)F)c2C#N)c1,IC50,[1],> 10 µM
same,IC50,[2],> 10 µM
same,IC50,[3],> 10 µM
same,IC50,[4],> 10 µM
same,IC50,[5],> 10 µM
same,IC50,[6],> 10 µM
same,"viability, T/C",[7],99.4%
same,"viability, T/C",[8],111%
same,"viability, T/C",[9],95.7%
same,"viability, T/C",[10],97.9%
same,"viability, T/C",[11],96.7%
same,"viability, T/C",[12],89.5%
same,"viability, T/C",[13],109%
same,"viability, T/C",[14],107%
same,"viability, T/C",[15],96.2%
same,"viability, T/C",[16],87.9%
same,"viability, T/C",[17],98%
same,"viability, T/C",[18],99.8%
same,"viability, T/C",[19],113%
same,"viability, T/C",[20],93.8%
same,"viability, T/C",[21],101%
same,"viability, T/C",[22],91.4%
same,"viability, T/C",[23],107%
same,"viability, T/C",[24],88.9%
same,"viability, T/C",[25],100%
same,"viability, T/C",[26],101%
same,"viability, T/C",[27],84.5%
same,"viability, T/C",[28],98.3%
same,"viability, T/C",[29],104%
same,"viability, T/C",[30],82%
same,"viability, T/C",[31],101%
same,"viability, T/C",[32],96%
same,"viability, T/C",[33],106%
same,"viability, T/C",[34],111%
same,"viability, T/C",[35],95.3%
same,"viability, T/C",[36],96.7%
same,"viability, T/C",[37],95.7%
same,"viability, T/C",[38],105%
same,"viability, T/C",[39],90.9%
same,"viability, T/C",[40],90.7%
same,"viability, T/C",[41],84.5%
same,"viability, T/C",[42],92.1%
O=C(Nc1ccc(O)c(NS(=O)(=O)c2ccc(F)cc2)c1)c1ccc(-c2ccccc2)cc1,"viability, T/C",compound 0.0316 µM,101% (2×) and 109%
same,"viability, T/C",compound 0.1 µM,98.5% and 91.8% and 94.6%
same,"viability, T/C",compound 0.316 µM,113% and 109% and 100%
same,"viability, T/C",compound 1 µM,97.6% and 98.6% and 105%
same,"viability, T/C",compound 3.16 µM,96.9% and 88.3% and 105%
same,"viability, T/C",compound 10 µM,101% and 97.1% and 79.9%
same,IC50,curve of compound,> 10 µM
